Test results taken from PubChem BioAssay AID720570 (Broad Institute, 2013).
Activity calls are given as the source filed them.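 How the source made its calls: active means cell-killing curve crosses a set limit at a concentration no more than twice the top valid dose; inconclusive means flat curve with a 30 to 70% loss, or a poor fit; inactive means signal rising instead of falling, and the rest.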

Assay: cytotoxicity in EWS/Fli1-dependent TC71 cells – cell-based, luminescence, cherry-picked samples, retest, confirmation (AID 720570)
Conditions: TC71 Ewing sarcoma viability, CellTiter-Glo ATP, 72 h

Structure (SMILES) | activity change, negative = cytotoxicity (at 26 µM (top of the series)) | activity change, negative = cytotoxicity (at 23.5 µM (top of the series))
N#C[C@@H]1[C@H](c2ccc(C#Cc3cccc(F)c3)cc2)[C@@H](CO)N1C(=O)C1CCCC1 | -12.2% (inactive) | –
COc1ccccc1-c1cn(CC[C@H]2CC[C@@H](NC(=O)C3CCCC3)[C@@H](CO)O2)nn1 | 12.9% (inactive) | –
O=C1c2ccc3c4c(ccc(c24)C(=O)N1c1cccc(O)c1)C(=O)N(c1cccc(O)c1)C3=O | -1.18% (inactive) | –
COC(=O)C[C@@H]1CC[C@@H]2[C@H](COc3ccc(NC(=O)c4cccc(Cl)c4)cc3C(=O)N2C)O1 | – | 2.41% (inactive)
N#C[C@H]1[C@H](c2ccc(C#Cc3ccccc3F)cc2)[C@@H](CO)N1C(=O)C1CCOCC1 | -12.8% (inactive) | –
COc1cc(C(c2c(C)[nH][nH]c2=O)c2c(C)[nH][nH]c2=O)ccc1OC(C)C | 3.29% (inactive) | –
COC(=O)C[C@@H]1CC[C@@H]2[C@H](COc3ccc(NC(=O)c4ccc(F)c(F)c4)cc3C(=O)N2C)O1 | 9.2% (inactive) | –
Cc1ccsc1/C=N/Nc1cccc(C(=O)O)c1 | -2.07% (inactive) | –
C/C(=N\OCc1cccc(C(=O)O)c1)c1ccc(Cl)cc1 | -12.2% (inactive) | –
C[C@H]1CN([C@@H](C)CO)S(=O)(=O)c2ccc(C#Cc3ccncc3)cc2O[C@@H]1CN(C)S(=O)(=O)c1ccccc1 | -7.09% (inactive) | –
CCc1c(C(=O)NN2C(=O)C3CCCCC3C2=O)csc1C (stereo not given) | 23.1% (inactive) | –
CCOc1ccc(C(c2c(NC(=O)c3ccccc3)sc(C)c2C)N2CCN(CCO)CC2)cc1 (stereo not given) | 16.1% (inactive) | –
CN(C)C(=O)c1cccc(-c2ccc(C3[C@@H]4CN(Cc5nccs5)C[C@H]3N4)cc2)c1 (stereo not given in full) | 0.197% (inactive) | –
COc1ccc(/C=C2\SC(=O)N(CCCC(=O)Nc3ccc(C(=O)O)cc3)C2=O)cc1 | 21.2% (inactive) | –
CC(Oc1cccc(Cl)c1)C(=O)NCCCCc1ccccc1 (stereo not given) | 13.3% (inactive) | –
O=c1c2ccccc2oc2ccc(C#CC3(O)CCCCC3)cc12 | -10.3% (inactive) | –
C[C@H]1CN([C@@H](C)CO)C(=O)c2cccc(NC(=O)c3ccc(-c4nccs4)cc3)c2O[C@@H]1CN(C)Cc1ccc(C(=O)Nc2ccccc2N)cc1 | -30.9% (inactive) | –
C(=C\c1ccc(C2[C@H]3CNC[C@@H]2N3Cc2ccccn2)cc1)/c1ccccc1 (stereo not given in full) | -7.86% (inactive) | –
COc1ccc(Cl)cc1S(=O)(=O)Nc1ccc2c(c1)n(C)c(=O)n2C | -4.55% (inactive) | –
CC(C)CC(NC(=O)c1cccs1)c1nnc(SCc2ccc(Cl)c(Cl)c2)n1C (stereo not given) | -10% (inactive) | –
N#C[C@H]1N[C@H](CO)[C@H]1c1ccc(C#Cc2ccccc2F)cc1 | – | -18.8% (inactive)
C[C@H](CO)N1C[C@H](C)[C@H](CN(C)CC2CCCCC2)Oc2ccc(NC(=O)Nc3cccc4ccccc34)cc2C1=O | 6.42% (inactive) | –
COC(=O)C(CC#Cc1ccc2c(c1)[C@]1(C(=O)N2)[C@H](c2ccc(OCCO)cc2)N2[C@H](c3ccccc3)[C@H](c3ccccc3)OC(=O)[C@H]2[C@@H]1C(=O)N1CCN(c2ncccn2)CC1)C(=O)OC | 3.63% (inactive) | –
CCOc1ccccc1CNC(=O)c1ccc(Sc2ccc(Cl)cc2)c(NC(C)=O)c1 | -3.24% (inactive) | –
COc1ccc2oc(C(=O)NCCc3ccccc3)c(C)c2c1 | 3.92% (inactive) | –
COc1ccc(/C=C2\SC(=S)N(CCCC(=O)Nc3ccc(O)cc3)C2=O)cc1 | 0.096% (inactive) | –
COC(=O)c1cccc(NC(=O)NC(=O)c2ccc(Cl)cc2)c1 | -16.8% (inactive) | –
CC1=NC(=O)C(N=Nc2cccc(C(=O)O)c2)N1c1ccccc1 (stereo not given) | 18.2% (inactive) | –

Structure (SMILES) | activity change, negative = cytotoxicity (at 26 µM (top of the series)) | activity change, negative = cytotoxicity (at 23.5 µM (top of the series))
O=C(CN1C(=O)C(=O)c2ccccc21)c1ccc(Cl)cc1 | -1.64% (inactive) | –
CCc1ccc(N2C=C(C(=O)OC)C(c3ccc(OC)cc3)C(C#N)=C2N)cc1 (stereo not given) | -7.67% (inactive) | –
Cc1ccc2oc(/N=C(\N)NC(=O)C(C)(C)C)nc2c1 | 2.46% (inactive) | –
CO[C@H]1CN(C)C(=O)c2ccc(NC(=O)c3ccc(-c4ccccc4)cc3)cc2OC[C@H](C)NC[C@H]1C | 7.36% (inactive) | –
O=C(O)c1ccc(N/N=C/c2c[nH]c3ccccc23)cc1 | 19.2% (inactive) | –
O=C(NC(=O)c1ccccc1)Nc1ccccc1 | 10.6% (inactive) | –
O=C(O)c1ccc(N/N=C/c2ccc(OC(=O)c3cccc(Cl)c3)cc2)cc1 | -1.51% (inactive) | –
CCc1ccc(/C=C2\SC(=S)N(CCCC(=O)Nc3cc(C)on3)C2=O)cc1 | 20.2% (inactive) | –
Cc1occc1-c1n[nH]c(=S)n1C | 0.805% (inactive) | –
CCOC(=O)Cc1csc(NC(=S)NC(=O)c2ccc(C)cc2)n1 | 19.7% (inactive) | –
O=C(CNC(=O)Cc1ccccc1)N=Nc1c(O)n(Cc2ccc3c(c2)OCO3)c2ccccc12 | 8.54% (inactive) | –
CC(=O)Nc1ccc(OCC(=O)N(CC(C)C)C2CCS(=O)(=O)C2)cc1 (stereo not given) | 11.9% (inactive) | –
COc1ccc(OC)c(-c2cc(C(F)(F)F)c3c(n2)sc2c(O)cc(=O)[nH]c23)c1 | -3.31% (inactive) | –
CC(C)c1oc(=O)cc2c1[C@@H](O)[C@H]1OC(=O)[C@@]3(C)CC[C@@H](O)[C@@]2(C)C13 (stereo not given in full) | -18.6% (inactive) | –
CN(C(=O)COC(=O)c1cc(-c2ccccc2Cl)nc2ccccc12)C1CCS(=O)(=O)C1 (stereo not given) | 5.31% (inactive) | –
COc1ccc(/C=C2\Oc3ccccc3C2=O)cc1 | -14.5% (inactive) | –
Cc1ccc(-c2ccc3c(c2)O[C@@H](CN(C)C(=O)Nc2ccc(F)cc2)[C@H](C)CN([C@@H](C)CO)S3(=O)=O)cc1 | -12.5% (inactive) | –
CNC[C@H](CC1CCCCC1)NC[C@H](CO)NCCc1cccc(C(F)(F)F)c1 | 3.89% (inactive) | –
NC1=CC(=O)C(=O)c2cccnc21 | 1.93% (inactive) | –
CCN(CC)c1ccc(C2NC(=O)c3ccccc3N2)cc1 (stereo not given) | -26.2% (inactive) | –
COC(=O)C[C@@H]1CC[C@H]2[C@H](COc3ccc(NC(=O)Nc4ccc(C#N)cc4)cc3C(=O)N2C)O1 | – | 4.96% (inactive)
COc1ccc(CNc2ncc(-c3ccc(F)cc3)n2C)c2ccccc12 | -1.83% (inactive) | –
CC1(CCc2ccccc2)NC(=O)N(CC(=O)N2CC(=O)Nc3ccccc32)C1=O (stereo not given) | 3.37% (inactive) | –
Cc1noc(C)c1NC(=O)Nc1ccc2c(c1)CC(=O)N([C@@H](C)CO)C[C@@H](C)[C@@H](CN(C)Cc1ccc(Cl)c(Cl)c1)O2 | -0.95% (inactive) | –
CC(=O)Nc1ccc(S(=O)(=O)Nc2ccc(N3CCCCC3)cc2)cc1 | -4.73% (inactive) | –
Cc1cc(C(=O)NNC(=O)c2ccc(S(=O)(=O)N(C)C)cc2)c(C)o1 | 17.6% (inactive) | –
COc1ccc(N=C(NN)c2ccc3ccccc3n2)cc1 | 4.27% (inactive) | –
